Source: article PMC12004446, “Inhibition by 4-(4-Bromo-2-oxo-3H-benzimidazol-1-yl)-N-(4-iodophenyl)piperidine-1-carboxamide (TH5487) of the Activity of Human 8-Oxoguanine DNA Glycosylase-1 (OGG1) for the Excision of 2,6-Diamino-4-hydroxy-5-formamidopyrimidine, 4,6-Diamino-5-formamidopyrimidine, and 8-Oxoguanine from Oxidatively …” (Biochemistry, 2025)

Target: T1, human 8-oxoguanine DNA glycosylase-1 (hOGG1) (Homo sapiens, UniProt O15527)
T1 construct: gene OGG1
Test: fluorescence-based 8-oxo-Gua duplex oligodeoxynucleotide incision assay with purified hOGG1; also GC-MS/MS of lesion excision from genomic DNA
Assay type: biochemical

T1 sequence (O15527 whole entry): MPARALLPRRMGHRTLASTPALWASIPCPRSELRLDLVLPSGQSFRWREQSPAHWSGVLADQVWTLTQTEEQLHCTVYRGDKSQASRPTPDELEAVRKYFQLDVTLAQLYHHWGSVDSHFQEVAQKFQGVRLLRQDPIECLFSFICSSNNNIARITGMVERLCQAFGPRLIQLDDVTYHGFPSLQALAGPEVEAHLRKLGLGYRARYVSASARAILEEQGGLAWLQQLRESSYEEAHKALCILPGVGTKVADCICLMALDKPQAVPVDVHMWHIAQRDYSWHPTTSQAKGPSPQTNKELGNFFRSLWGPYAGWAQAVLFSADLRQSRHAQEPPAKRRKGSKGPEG

O=C(Nc1ccc(I)cc1)N1CCC(n2c(=O)[nH]c3c(Br)cccc32)CC1 [TH5487, 4-(4-bromo-2-oxo-3H-benzimidazol-1-yl)-N-(4-iodophenyl)piperidine-1-carboxamide]
IC50: 800 nM
